Reference: US20020155519A1 (priority 1997, published 2002)
Entries after “also recorded” stand apart in the source; their conditions may differ.

Each compound was assayed on human blood bacterium (HBB). Conditions: not given.
Type: cell-based

Row | Compound | effect on HBB growth in culture | optimum concentration for stimulation of HBB growth [µg/mL] | effect on reduction of cell wall-defective forms
1 | OCCS [2-mercaptoethanol] | no significant effect |  | 
2 | CC(=O)N[C@@H](CS)C(=O)O [N-acetyl cysteine] | Little or no stimulation or inhibition; also recorded: no significant effect |  | 
3 | NC12CC3CC(CC(C3)C1)C2 [amantadine, reference compound] | Little or no stimulation or inhibition |  | 
4 | N.N.O=S(=O)(O)O [ammonium sulfate] | Little or no stimulation or inhibition; also recorded: no effect |  | 
5 | [N-]=[N+]=[N-] [azide, reference compound] | little effect on growth |  | 
6 | CCO [ethanol] | Some stimulation of growth |  | 
7 | OO [hydrogen peroxide] | might also be stimulated |  | 
8 | [Fe] [iron] | stimulated |  | 
9 | CC(C)CCO [isoamyl alcohol] | Some stimulation of growth |  | 
10 | [Mn+2] [manganese] | stimulated | 1 | 
11 | CO [methanol] | minimal or no stimulation of growth |  | 
12 | CSCC[C@H](N)C(=O)O [methionine] | appears to do so less consistently |  | 
13 | CN(C)c1ccc2nc3ccc(=[N+](C)C)cc-3sc2c1 [methylene blue] | Little or no stimulation or inhibition |  | 
14 | C1COCCN1 [morpholine] | slight stimulation |  | 
15 | C[C@@H](O[C@H]1[C@H](O)[C@@H](CO)OC(O)[C@@H]1N)C(=O)O (stereo partly shown) [muramic acid] |  |  | no effect
16 | CCCCO [n-butanol] | Some stimulation of growth |  | 
17 | NCCCNCCCCNCCCN [spermine] | Little or no stimulation or inhibition |  | 
18 | (oxidized) arachidonate | might also be stimulated |  | 
19 | mercury | possibly; also recorded: stimulated |  | 
20 | titanium ethoxide | slight stimulation |  | 

Same assay, conditions: 2 μg/ml

Row | Compound | effect on HBB growth in culture
21 | C[N+](C)(C)C[C@H](O)CC(=O)[O-] [L-carnitine] | Little or no stimulation or inhibition

Same assay, conditions: 3 μg/ml

Row | Compound | effect on HBB growth in culture
22 | NCCOP(=O)(O)O [phosphorylethanolamine] | Little or no stimulation or inhibition

Same assay, conditions: 4 μg/ml

Row | Compound | effect on HBB growth in culture
23 | O=C(O)c1cc(=O)[nH]c(=O)[nH]1 [orotic acid] | Little or no stimulation or inhibition

Same assay, conditions: 10 μg/ml

Row | Compound | effect on HBB growth in culture
24 | OCCS [2-mercaptoethanol] | Little or no stimulation or inhibition
25 | O[C@@H](CS)[C@@H](O)CS [dithiotheitol] | Little or no stimulation or inhibition

Same assay, conditions: 14 μg/ml

Row | Compound | effect on HBB growth in culture
26 | O=BOB(O)OB(O)OB=O [borax] | Little or no stimulation or inhibition
27 | O=c1ccc2[n+]([O-])c3ccc(O)cc3oc-2c1 [resazurin] | Little or no stimulation or inhibition
28 | CCN(CC)CN(CC)CC [tetraethylmethylenediamine] | slight stimulation

Same assay, conditions: 20 μg/ml

Row | Compound | effect on HBB growth in culture
29 | N[C@@H](CS)C(=O)O [cysteine] | Little or no stimulation or inhibition
30 | NCCS(=O)(=O)O [taurine] | Little or no stimulation or inhibition

Same assay, conditions: 20 μg/ml; listed as Cysteine

Row | Compound | effect on HBB growth in culture
31 | N[C@@H](CS)C(=O)O [cysteine] | appears to inhibit growth in some isolates

Same assay, conditions: 1/14 saturated

Row | Compound | effect on HBB growth in culture
32 | O=C(c1ccccc1)c1ccccc1 [benzophenone] | slight stimulation
33 | c1ccc(Nc2ccccc2)cc1 [diphenylamine] | slight stimulation
34 | dichlorophenylenediamine | Little or no stimulation or inhibition

Same assay, conditions: added to ½ strength medium O or RPMI

Row | Compound | effect on HBB growth in culture
35 | COC(C)=O [methyl acetate] | minimal or no stimulation of growth
36 | COP(=O)(OC)OC [trimethyl phosphate] | minimal or no stimulation of growth
37 | CN(C)C [trimethylamine] | minimal or no stimulation of growth

Same assay, conditions: addition of cell wall precursors

Row | Compound | effect on reduction of cell wall-defective forms
38 | CC(=O)N[C@H]1C(O)O[C@H](CO)[C@@H](O)[C@@H]1O (stereo partly shown) [N-acetylglucosamine] | no effect
39 | CC(=O)N[C@H]1C(O)O[C@H](CO)[C@@H](O[C@@H]2O[C@H](CO)[C@H](O)[C@H](O)[C@H]2O)[C@@H]1O (stereo partly shown) [N-acetyllactoasamine] | no effect
40 | CC(=O)N[C@H]1C(O)O[C@H](CO)[C@@H](O)[C@@H]1O[C@H](C)C(=O)O (stereo partly shown) [N-acetylmuramic acid] | no effect
41 | N[C@H](CCC[C@H](N)C(=O)O)C(=O)O [diaminopimelic acid] | no effect

Same assay, conditions: concentration not printed

Row | Compound | effect on HBB growth in culture
42 | CC(=O)N[C@H]1C(O)O[C@H](CO)[C@@H](O[C@@H]2O[C@H](CO)[C@H](O)[C@H](O)[C@H]2O)[C@@H]1O (stereo partly shown) [N-acetyllactoasamine] | some stimulation of culture growth
43 | [Cr] [chromium] | no inhibition of bacterial growth
44 | [Cu] [copper] | stimulated
45 | N[C@@H](CS)C(=O)O [cysteine] | suppresses growth of some strains; also recorded: stimulates other strains
46 | O[C@@H](CS)[C@@H](O)CS [dithiotheitol] | no significant effect
47 | O=C(CO)[C@@H](O)[C@H](O)[C@H](O)CO [fructose] | support growth
48 | OC[C@H]1O[C@@H](O[C@H]2[C@H](O)[C@@H](O)C(O)O[C@@H]2CO)[C@H](O)[C@@H](O)[C@H]1O (stereo partly shown) [lactose] | support growth
49 | [Mg+2] [magnesium] | little effect on the growth
50 | OC[C@H]1O[C@H](OCC2O[C@@H](O)[C@H](O)[C@@H](O)[C@@H]2O)[C@H](O)[C@@H](O)[C@H]1O (stereo partly shown) [meilibose] | support growth
51 | CN(Cc1cnc2nc(N)nc(N)c2n1)c1ccc(C(=O)N[C@@H](CCC(=O)O)C(=O)O)cc1 [methotrexate, reference compound] | no inhibition
52 | O=C(O)c1ccccn1 [picolinic acid] | Little or no stimulation or inhibition
53 | [I-].[K+] [potassium iodide] | Little or no stimulation or inhibition
54 | OC[C@H]1O[C@H](OC[C@H]2O[C@H](O[C@]3(CO)O[C@H](CO)[C@@H](O)[C@@H]3O)[C@H](O)[C@@H](O)[C@@H]2O)[C@H](O)[C@@H](O)[C@H]1O [raffinose] | support growth
55 | [Ag] [silver] | stimulated
56 | OC[C@H]1O[C@@](CO)(O[C@H]2O[C@H](CO)[C@@H](O)[C@H](O)[C@H]2O)[C@@H](O)[C@@H]1O [sucrose] | support growth
57 | NCCS(=O)(=O)O [taurine] | no effect on cultures
58 | [Sn] [tin] | stimulated
59 | [Zn] [zinc] | suppresses the growth; also recorded: inhibited
60 | chromium picolinate | Little or no stimulation or inhibition
61 | dextran | support growth
62 | silver proteinate | Little or no stimulation or inhibition

Same assay, conditions: ⅕ saturated

Row | Compound | effect on HBB growth in culture
63 | COC1=C(OC)C(=O)C(C/C=C(\C)CC/C=C(\C)CC/C=C(\C)CC/C=C(\C)CC/C=C(\C)CC/C=C(\C)CC/C=C(\C)CC/C=C(\C)CC/C=C(\C)CCC=C(C)C)=C(C)C1=O [ubiquinone (Q10)] | slight stimulation

System: human blood bacterium (HBB)
Type: cell-based
Conditions: not given
Remark: another data set of the same source
Experimental: Normally 1 ml of serum was added to 9 ml of medium. Larger flasks with a proportionately larger amount of serum and medium are used to produce bacteria in quantity. Modulators might be added to some flasks in 10× or higher concentration (corresponding to addition of 1 ml or less). When examining the effect of modulators, control flasks were prepared similarly without the addition of the modulator. Levels were observed microscopically (inverted phase microscope, observing the number of organisms per field crudely or by actual count) after incubation, typically at several points in time.
When multiple comparisons were done at once, they were done in 12 well or 24 well cell culture plates, most often the latter. With the latter, typically 1 ml of medium inoculated with serum is added to each well, with modulators added at 10× or higher concentration (0.1 ml or less). When comparisons are done in well plates, control wells without any additions are included. Levels were observed microscopically (inverted phase microscope) after incubation, typically at several points in time. The well plate cultures were also used for antibiotic sensitivity testing.
These procedures are those known in the art and include uses of antibodies and DNA probes, Western and Southern blots, PCR and the diagnostic kits therefor. First, organisms can be quantified by culture. […] If a means is found to immobilize the bacteria to grow isolated colonies, counts will be more accurate. Quantification is used to follow the progress of treatment and to correlate HBB levels with specific disease syndromes. Quantification is used also for antibiotic sensitivity measurements, comparing the level of growth with antibiotic treatment to the level of growth without treatment. Such antibiotic sensitivity measurements establish the basis for the clinical choice of antibiotic drugs.

Row | Compound | antibiotic sensitivity of HBB strains/isolates in culture
64 | CC1(C)S[C@@H]2[C@H](NC(=O)[C@H](N)c3ccc(O)cc3)C(=O)N2[C@H]1C(=O)O [amoxicillin] | less sensitivity

Same assay, conditions: 2 μg/ml

Row | Compound | observed antibiotic and antifungal sensitivities (outcome, number of isolates)
65 | NCC[C@H](O)C(=O)N[C@@H]1C[C@H](N)[C@@H](O[C@H]2O[C@H](CN)[C@@H](O)[C@H](O)[C@H]2O)[C@H](O)[C@H]1O[C@H]1O[C@H](CO)[C@@H](O)[C@H](N)[C@H]1O [amikacin] | no effect (1 isolate)

Same assay, conditions: 20 μg/ml

Row | Compound | observed antibiotic and antifungal sensitivities (outcome, number of isolates)
66 | Nc1ccc(O)c(C(=O)O)c1 [5-aminosalicylic acid] | no effect (4 isolates)
